In patent US8802866B2, “Pyridinylimidazolone derivatives for the inhibition of PI3 kinases” (Merck Patent GmbH, priority 2009, dated 2014):

Key:
PI3Kalpha = PI3Kalpha (Homo sapiens, UniProt P42336); test: Biochemical PI3Kalpha assay (neomycin SPA, lipid phosphorylation); conditions: human recombinant GST-PI3K
Procedure: (§1) The efficacy of the compounds according to the invention in the inhibition of PI3K-induced lipid phosphorylation can be investigated in the following binding assay. The assay combines scintillation proximity assay (SPA) technology (Amersham) with the ability of neomycin (a polycationic antibiotic) to bind phospholipids with high affinity and specificity. […] The coating of SPA beads with neomycin allows the detection of phosphorylated lipid substrates after incubation with recombinant PI3K and radioactive ATP in the same well by trapping the radioactive phospholipids by the SPA beads owing to their specific binding to neomycin. […] After incubation at room temperature for 120 minutes with gentle stirring, the reaction was stopped by addition of 200 μl of a solution comprising 250 μg of neomycin-coated PVT-SPA beads, ATP 60 mM and EDTA 6.2 mM in PBS. The assay is incubated at room temperature for a further 60 minutes with gentle stirring in order to enable binding of the phospholipids to the neomycin-SPA beads. After precipitation of the neomycin-coated PVT-SPA beads over 5 minutes at 1500×g, radioactive Ptdlns(3)P is quantified by scintillation counting in a Wallac Micro-Beta™ plate counter.

PI3Kbeta = PI3Kbeta (Homo sapiens, UniProt P42338); test: Biochemical PI3Kbeta assay (neomycin SPA, lipid phosphorylation); conditions: human recombinant GST-PI3K
Chain of PI3Kbeta (P42338 whole entry): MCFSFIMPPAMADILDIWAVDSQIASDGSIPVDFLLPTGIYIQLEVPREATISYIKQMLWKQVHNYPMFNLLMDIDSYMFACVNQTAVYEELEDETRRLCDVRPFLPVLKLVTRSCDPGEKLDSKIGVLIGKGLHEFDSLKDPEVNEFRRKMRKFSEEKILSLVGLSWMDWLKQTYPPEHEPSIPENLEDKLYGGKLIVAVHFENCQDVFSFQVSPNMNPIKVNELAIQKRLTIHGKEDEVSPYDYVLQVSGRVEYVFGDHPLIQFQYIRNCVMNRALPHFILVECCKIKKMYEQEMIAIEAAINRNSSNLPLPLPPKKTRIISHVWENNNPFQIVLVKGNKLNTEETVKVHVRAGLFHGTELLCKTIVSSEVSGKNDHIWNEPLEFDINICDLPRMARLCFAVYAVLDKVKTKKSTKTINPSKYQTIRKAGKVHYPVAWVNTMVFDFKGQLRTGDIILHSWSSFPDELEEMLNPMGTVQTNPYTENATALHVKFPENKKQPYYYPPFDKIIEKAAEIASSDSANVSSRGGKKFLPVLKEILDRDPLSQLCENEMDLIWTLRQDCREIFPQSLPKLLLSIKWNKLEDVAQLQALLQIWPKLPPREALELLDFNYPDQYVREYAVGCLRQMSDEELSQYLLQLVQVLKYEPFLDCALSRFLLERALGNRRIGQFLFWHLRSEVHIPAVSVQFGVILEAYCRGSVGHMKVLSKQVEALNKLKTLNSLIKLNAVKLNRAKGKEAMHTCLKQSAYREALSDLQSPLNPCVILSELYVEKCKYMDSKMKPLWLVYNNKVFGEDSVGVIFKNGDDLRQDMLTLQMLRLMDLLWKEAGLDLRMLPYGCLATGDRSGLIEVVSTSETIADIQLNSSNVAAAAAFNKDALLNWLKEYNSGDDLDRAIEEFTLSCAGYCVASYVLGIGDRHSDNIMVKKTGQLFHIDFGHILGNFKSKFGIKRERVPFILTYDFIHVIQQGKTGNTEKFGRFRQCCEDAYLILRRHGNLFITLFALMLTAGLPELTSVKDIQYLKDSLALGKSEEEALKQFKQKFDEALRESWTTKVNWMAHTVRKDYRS
Chain of PI3Kbeta (P27986 whole entry partner): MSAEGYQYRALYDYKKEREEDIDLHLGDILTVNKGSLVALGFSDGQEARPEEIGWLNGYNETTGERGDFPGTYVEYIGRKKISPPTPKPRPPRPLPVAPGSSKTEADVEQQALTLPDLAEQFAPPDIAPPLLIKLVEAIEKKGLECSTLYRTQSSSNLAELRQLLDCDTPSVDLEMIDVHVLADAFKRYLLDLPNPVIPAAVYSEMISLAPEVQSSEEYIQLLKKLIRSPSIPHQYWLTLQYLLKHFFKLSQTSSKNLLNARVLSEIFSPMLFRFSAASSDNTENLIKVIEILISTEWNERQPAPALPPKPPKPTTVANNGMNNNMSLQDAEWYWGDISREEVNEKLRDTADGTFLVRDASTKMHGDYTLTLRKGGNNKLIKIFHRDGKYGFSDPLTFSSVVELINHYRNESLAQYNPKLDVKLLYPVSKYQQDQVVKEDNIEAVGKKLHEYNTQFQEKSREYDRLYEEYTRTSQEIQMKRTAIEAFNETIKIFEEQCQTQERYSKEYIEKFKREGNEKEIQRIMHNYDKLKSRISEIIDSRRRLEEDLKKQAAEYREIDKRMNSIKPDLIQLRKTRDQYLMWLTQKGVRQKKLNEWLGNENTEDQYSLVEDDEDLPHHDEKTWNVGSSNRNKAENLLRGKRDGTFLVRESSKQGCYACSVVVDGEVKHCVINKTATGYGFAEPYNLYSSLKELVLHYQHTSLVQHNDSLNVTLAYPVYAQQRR
Procedure: as §1

[1] = biological target: recombinant PI3Kalpha (shortened form of the catalytic subunit) (Homo sapiens, UniProt P42336); test: BIACORE PI3K binding assay (SPR); conditions: 25° C.
Chain of recombinant PI3Kalpha (shortened form of the catalytic subunit) (P42336 151-1068 limits assumed): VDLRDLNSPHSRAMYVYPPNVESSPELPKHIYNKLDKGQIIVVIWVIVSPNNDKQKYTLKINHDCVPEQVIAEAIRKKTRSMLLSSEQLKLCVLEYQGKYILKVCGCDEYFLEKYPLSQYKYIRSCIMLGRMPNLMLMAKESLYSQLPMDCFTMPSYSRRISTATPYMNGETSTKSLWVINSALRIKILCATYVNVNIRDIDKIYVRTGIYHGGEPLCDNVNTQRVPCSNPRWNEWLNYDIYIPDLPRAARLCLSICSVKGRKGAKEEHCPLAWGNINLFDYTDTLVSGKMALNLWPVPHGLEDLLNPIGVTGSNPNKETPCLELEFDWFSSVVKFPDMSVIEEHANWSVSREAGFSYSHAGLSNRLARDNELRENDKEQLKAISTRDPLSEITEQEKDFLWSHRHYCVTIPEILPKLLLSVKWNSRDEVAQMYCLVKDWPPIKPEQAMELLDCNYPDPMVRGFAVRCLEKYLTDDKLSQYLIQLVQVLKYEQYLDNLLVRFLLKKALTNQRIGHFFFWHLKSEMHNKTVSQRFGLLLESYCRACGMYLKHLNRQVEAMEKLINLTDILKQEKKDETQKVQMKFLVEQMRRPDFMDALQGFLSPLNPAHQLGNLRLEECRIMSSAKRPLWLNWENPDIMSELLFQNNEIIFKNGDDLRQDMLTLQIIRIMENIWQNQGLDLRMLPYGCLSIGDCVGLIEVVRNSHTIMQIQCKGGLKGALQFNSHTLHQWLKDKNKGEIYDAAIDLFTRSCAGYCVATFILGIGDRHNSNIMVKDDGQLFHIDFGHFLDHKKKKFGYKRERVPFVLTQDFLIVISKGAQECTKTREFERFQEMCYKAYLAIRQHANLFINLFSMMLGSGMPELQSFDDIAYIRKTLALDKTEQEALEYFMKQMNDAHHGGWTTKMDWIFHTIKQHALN
Procedure: SPR measurements of the binding affinities and binding kinetics on PI3Kalpha surfaces with the aid of Biacore systems. The experiments are carried out on a Biacore S51 “Compound Characterization” or a Biacore T100 instrument utilising the default application “Kinetics/Affinity” Experimental conditions: recombinant PI3Kalpha (shortened form of the catalytic subunit, missing N terminal from about 100 to 150 aa, Mw about 110 kDa, prepared by Proteros Biostructures GmbH) is immobilised on Biacore CM5 chips (25° C., flow rate: 10 μl/min, utilising amine coupling at pH 7.40—Biacore Standard protocol). PI3Kalpha is employed in concentrations between 10 and 25 μg/ml. Depending on the duration of the injection time, immobilisation levels from 1700 to 11000 RU are achieved. The substances to be measured are added in the form of a titration series. The substance concentration is doubled for each subsequent injection. 10 different substance concentrations which cover a 500-fold dilution range are usually injected. […] Kinetic titration experiments are carried out at 25° C. with a flow rate of 30 μl/min, the sample contact time is 180 s, and the dissociation time is 240 s in a running buffer (20 mM HEPES pH7.40, 150 mM NaCl, 5 mM MgCl2, 1 mM DTT, 0.1 mM EDTA, 0.05% Tween 20) comprising 2% of DMSO. Buffer injections (as double references) identical to the sample injections are carried out in each case at the beginning of a continuous series. Solvent correction cycles (eight correction points, 1.4%-2.8% DMSO) are carried out at equal intervals. In order to condition the surface, at least five start-up cycles (buffer injections) are carried out. Data points are collected with a sample rate of 10 Hz. Surface regeneration is carried out after each measurement cycle, apart from after the solvent correction runs. For this purpose, two times 100 mM NaHCO3 pH 8.60 are injected for 30 sec. Data sets are processed and analysed using the Biacore S51 Evaluation software, version 1.2.1, or Biacore T100 Evaluation, version 2.0. Solvent-corrected and double-referenced association and dissociation phase data are adapted to a simple 1:1 interaction model with mass transport limitations.

[2] = tested on: PI3K-dependent phosphorylation of PKB at Serin 473 in PC3 cells; test: Cellular PI3K assay (P-S473-PKB Luminex assay in PC3 cells); type: cell-based; conditions: Homo sapiens, PC-3, 0.5 h; PC3 cells, 30 min, serum-free, P-S473-PKB; read-out: IC50 (cell)
Procedure: The cellular assay for determination of the P-S473-PKB level is carried out as a Luminex assay in 96-well format in PC3 cells.
PC3 cells are sown out with 20,000 cells per well in 100 μl medium (45% […]/45% Ham's F12/10% FCS) and incubated on the following day for 30 min with a serial dilution of the test substance (7 concentrations) under serum-free conditions. The cells are subsequently lysed using 90 μl of lysis buffer (20 mM Tris/HCl pH 8.0, 150 mM NaCl, 1% NP40, 10% glycerol, 1% phosphatase inhibitor I, 1% phosphatase inhibitor II, 0.1% protease inhibitor cocktail III, 0.01% benzonase) per well, and the lysates are separated off from insoluble cell constituents by means of centrifugation through a 96-well filter plate (0.65 μm). The lysates are incubated overnight at 4° C. with shaking with Luminex beads to which an anti-total PKB antibody is coupled. The detection is carried out on the following day by addition of a P-S473-PKB antibody and a species-specific PE-labelled secondary antibody. The detection of P-S473-PKB is carried out by measurement in a Luminex100 instrument by determination of 100 events per cavity in a measurement time of 60 sec.

DNA-PK protein complex = DNA-PK protein complex (Homo sapiens, UniProt P78527); test: Biochemical DNA-PK assay (FlashPlate)
Procedure: The kinase assay is carried out in […] microtitre FlashPlates®, coated with streptavidin. […] The reaction is stopped by addition of 50 μl/well of 200 mM EDTA. After incubation for 30 minutes, the liquids are removed at room temperature. Each well is washed three times with 100 μl of 0.9% NaCl solution. Non-specific reaction (blank) is determined using a proprietary kinase inhibitor (10 μM). The radioactivity is measured by means of a Topcount. […] Todd Eary, J. G. Schiro, H. Huang, L. E. Burgess, E. A. Kesicki, and J. Halbrook.

Chain of PI3Kalpha (P42336 whole entry): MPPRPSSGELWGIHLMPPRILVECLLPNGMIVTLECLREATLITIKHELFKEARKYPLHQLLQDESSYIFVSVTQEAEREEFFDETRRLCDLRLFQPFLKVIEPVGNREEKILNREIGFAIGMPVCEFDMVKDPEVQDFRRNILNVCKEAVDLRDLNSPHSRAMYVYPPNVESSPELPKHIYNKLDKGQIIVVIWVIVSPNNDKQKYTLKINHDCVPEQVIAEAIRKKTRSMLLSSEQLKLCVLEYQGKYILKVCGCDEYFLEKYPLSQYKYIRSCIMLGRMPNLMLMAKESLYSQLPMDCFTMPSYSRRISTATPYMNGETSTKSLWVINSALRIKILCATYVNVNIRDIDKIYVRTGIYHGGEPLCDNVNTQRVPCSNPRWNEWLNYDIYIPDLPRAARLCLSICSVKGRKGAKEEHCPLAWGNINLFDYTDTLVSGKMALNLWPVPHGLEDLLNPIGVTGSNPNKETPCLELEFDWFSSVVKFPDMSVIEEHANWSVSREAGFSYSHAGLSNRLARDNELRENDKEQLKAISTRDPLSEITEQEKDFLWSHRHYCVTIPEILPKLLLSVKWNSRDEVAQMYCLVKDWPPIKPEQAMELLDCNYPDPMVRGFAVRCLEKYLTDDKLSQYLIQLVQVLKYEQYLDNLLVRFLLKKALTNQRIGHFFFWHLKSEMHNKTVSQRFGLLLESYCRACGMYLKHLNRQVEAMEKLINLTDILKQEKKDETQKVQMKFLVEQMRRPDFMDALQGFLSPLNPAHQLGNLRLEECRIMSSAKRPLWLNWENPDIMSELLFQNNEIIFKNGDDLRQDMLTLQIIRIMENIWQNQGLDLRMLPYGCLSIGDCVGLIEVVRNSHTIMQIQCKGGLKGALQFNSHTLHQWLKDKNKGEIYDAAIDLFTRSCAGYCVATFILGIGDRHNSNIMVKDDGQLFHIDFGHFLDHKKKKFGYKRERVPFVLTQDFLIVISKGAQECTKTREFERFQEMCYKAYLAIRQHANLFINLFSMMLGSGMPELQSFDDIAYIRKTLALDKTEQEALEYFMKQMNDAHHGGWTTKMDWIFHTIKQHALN
Chain of PI3Kalpha (P27986 whole entry partner): as the sequence (P27986 whole entry partner) above

IC50 (PI3Kalpha) [nM]	IC50 (PI3Kbeta) [nM]	Kd [1] [nM]	IC50 [2] [nM]	IC50 (DNA-PK protein complex) [nM]	SMILES
100 to 10000	100 to 10000	100 to 10000	100 to 10000	100 to 10000	COc1ccc(-c2ccnc(-c3c[nH]c(=O)n3-c3ccc(N4CCNCC4)c(C(F)(F)F)c3)c2)cn1 [Example A4, 5-(6-Methoxy-[3,4′]bipyridinyl-2′-yl)-1-(4-piperazin-1-yl-3-trifluoromethylphenyl)-1,3-dihydroimidazol-2-one]
100 to 10000	100 to 10000	100 to 10000	100 to 10000	100 to 10000	Cn1cc(-c2cc(-c3cnc4ccccc4c3)ccn2)n(-c2ccc(N3CCNCC3)c(C(F)(F)F)c2)c1=O [Example A19, 1-Methyl-3-(4-piperazin-1-yl-3-trifluoromethylphenyl)-4-(4-quinolin-3-ylpyridin-2-yl)-1,3-dihydroimidazol-2-one]
0.1 to 100	100 to 10000	0.1 to 100	100 to 10000	0.1 to 100	CC(C)(C#N)c1ccc(-n2c(-c3cc(-c4cnc5[nH]ccc5c4)ccn3)c[nH]c2=O)cc1 [Example A28, 2-Methyl-2-(4-{2-oxo-5-[4-(1H-pyrrolo[2,3-b]pyridin-5-yl)pyridin-2-yl]-2,3-dihydroimidazol-1-yl}phenyl)propionitrile]
0.1 to 100	100 to 10000	0.1 to 100	100 to 10000	0.1 to 100	COC(=O)c1c[nH]c2ncc(-c3ccnc(-c4cn(C)c(=O)n4-c4ccc(C(C)(C)C#N)cc4)c3)cc12 [Example A29, Methyl 5-(2-{3-[4-(cyanodimethylmethyl)phenyl]-1-methyl-2-oxo-2,3-dihydro-1H-imidazol-4-yl}pyridin-4-yl)-1H-pyrrolo[2,3-b]pyridine-3-carboxylate]
100 to 10000	100 to 10000	0.1 to 100	> 10000	0.1 to 100	Cn1cc(-c2cc(-c3cnc4[nH]ccc4c3)ccn2)n(-c2ccc(C(C)(C)C(=O)O)cc2)c1=O [Example A33, 2-Methyl-2-(4-{3-methyl-2-oxo-5-[4-(1H-pyrrolo[2,3-b]pyridin-5-yl)pyridin-2-yl]-2,3-dihydroimidazol-1-yl}phenyl)propionic acid]
100 to 10000	100 to 10000	0.1 to 100	100 to 10000	0.1 to 100	Cn1cc(-c2cc(-c3cnc(N)c(C#N)c3)ccn2)n(-c2ccc(C(C)(C)C#N)cc2)c1=O [Example A37, 6-Amino-2′-{3-[4-(cyanodimethylmethyl)phenyl]-1-methyl-2-oxo-2,3-dihydro-1H-imidazol-4-yl}-[3,4′]bipyridinyl-5-carbonitrile]
0.1 to 100	100 to 10000	0.1 to 100	100 to 10000	100 to 10000	Cn1cc(-c2cc(-c3cnc4[nH]cnc4c3)ccn2)n(-c2ccc(C(C)(C)C#N)cc2)c1=O [Example A38, 2-(4-{5-[4-(3H-Imidazo[4,5-b]pyridin-6-yl)pyridin-2-yl]-3-methyl-2-oxo-2,3-dihydroimidazol-1-yl}phenyl)-2-methylpropionitrile]
100 to 10000	100 to 10000	100 to 10000	100 to 10000	0.1 to 100	Cn1cc(-c2cc(-c3cnc4[nH]ccc4c3)ccn2)n(-c2ccc(C#N)cc2)c1=O [Example A48, 4-{3-Methyl-2-oxo-5-[4-(1H-pyrrolo[2,3-b]pyridin-5-yl)pyridin-2-yl]-2,3-dihydro-imidazol-1-yl}benzonitrile]
100 to 10000	100 to 10000	0.1 to 100	100 to 10000	100 to 10000	Cn1cc(-c2cc(-c3cnc(N)c(C(F)(F)F)c3)ccn2)n(-c2ccc(N3CCNCC3)c(C(F)(F)F)c2)c1=O [Example A56, 4-(6-Amino-5-trifluoromethyl-[3,4′]bipyridinyl-2′-yl)-1-methyl-3-(4-piperazin-1-yl-3-trifluoromethylphenyl)-1,3-dihydroimidazol-2-one]
100 to 10000	100 to 10000	100 to 10000	100 to 10000	100 to 10000	Cn1cc(-c2cc(-c3ccc4[nH]ccc4c3)ccn2)n(-c2ccc(N3CCNCC3)c(C(F)(F)F)c2)c1=O [Example A57, 4-[4-(1H-Indol-5-yl)pyridin-2-yl]-1-methyl-3-(4-piperazin-1-yl-3-trifluoromethyl-phenyl)-1,3-dihydroimidazol-2-one]
100 to 10000	100 to 10000	0.1 to 100	100 to 10000	0.1 to 100	Cn1cc(-c2cc(-c3ccc(N)nc3)ccn2)n(-c2ccc(N3CCNCC3)c(C(F)(F)F)c2)c1=O [Example A59, 4-(6-Amino-[3,4′]bipyridinyl-2′-yl)-1-methyl-3-(4-piperazin-1-yl-3-trifluoromethyl-phenyl)-1,3-dihydroimidazol-2-one]
> 10000	> 10000	> 10000	> 10000	0.1 to 100	Cn1cc(-c2cc(-c3ccc(NS(C)(=O)=O)cc3)ccn2)n(-c2ccc(N3CCNCC3)c(C(F)(F)F)c2)c1=O [Example A62, N-(4-{2-[1-Methyl-2-oxo-3-(4-piperazin-1-yl-3-trifluoromethylphenyl)-2,3-dihydro-1H-imidazol-4-yl]pyridin-4-yl}phenyl)methanesulfonamide]
100 to 10000	100 to 10000	0.1 to 100	100 to 10000	0.1 to 100	Cn1cc(-c2cc(-c3cnc(N)c(C(F)(F)F)c3)ccn2)n(-c2cccc(C#N)c2)c1=O [Example A64, 3-[5-(6-Amino-5-trifluoromethyl-[3,4′]bipyridinyl-2′-yl)-3-methyl-2-oxo-2,3-dihydroimidazol-1-yl]benzonitrile]
100 to 10000	100 to 10000	0.1 to 100	100 to 10000	0.1 to 100	Cn1cc(-c2cc(-c3cnc(N)c(C#N)c3)ccn2)n(-c2ccc(N3CCNCC3)c(C(F)(F)F)c2)c1=O [Example A65, 6-Amino-2′-[1-methyl-2-oxo-3-(4-piperazin-1-yl-3-trifluoromethylphenyl)-2,3-dihydro-1H-imidazol-4-yl]-[3,4′]bipyridinyl-5-carbonitrile]
> 10000	> 10000	> 10000	> 10000	> 10000	CCc1cccc(-n2c(-c3cc(-c4cnc5[nH]ccc5c4)ccn3)cn(C)c2=O)c1 [Example A66, 3-(3-Ethylphenyl)-1-methyl-4-[4-(1H-pyrrolo[2,3-b]pyridin-5-yl)pyridin-2-yl]-1,3-dihydroimidazol-2-one]
